From PMC4742250 (Biochimica et biophysica acta, 2008)
Where a SMILES comes first, the peptide text is derived from it. Bridges are numbered along the chain shown (N, C = ends).

How the values were obtained:
Trx-gp5Δ22 interaction = Trx-gp5Δ22 interaction (Escherichia coli, UniProt P0AA25); assay: biochemical; set-up: species or system E. coli (Trx); bacteriophage T7 (gp5Δ22)
E. coli Trx = E. coli Trx (Escherichia coli, UniProt P0AA25); assay: dilution binding assay of biotinylated TP-2 to immobilized Trx
Sequence of E. coli Trx (P0AA25 whole entry): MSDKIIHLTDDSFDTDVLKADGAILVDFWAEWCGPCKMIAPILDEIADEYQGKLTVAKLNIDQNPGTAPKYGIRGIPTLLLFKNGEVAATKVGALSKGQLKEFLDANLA

Src SH3 = details: read-out: KD, Src SH3 and its peptide ligand; ref [23]; cited from earlier work
human Src SH3 domain = assay: phage ELISA, binding to human Src SH3 domain; details: immobilized on polystyrene plates, O.D. 405 nm, triplicate wells

Sequence of Trx-gp5Δ22 interaction (P0AA25 2-109, stated change not applied): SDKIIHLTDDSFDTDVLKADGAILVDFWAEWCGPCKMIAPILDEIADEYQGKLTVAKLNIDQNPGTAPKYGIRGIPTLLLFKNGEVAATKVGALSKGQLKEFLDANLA

CC[C@H](C)[C@H](NC(=O)[C@H](CC(C)C)NC(=O)[C@H](CCCNC(=N)N)NC(=O)[C@H](CC(=O)O)NC(=O)[C@@H]1CCCN1C(=O)[C@@H](NC(=O)[C@@H](NC(=O)[C@@H]1CSSC[C@H](NC(=O)[C@H](CC(N)=O)NC(=O)[C@@H](NC(=O)[C@H](CC(N)=O)NC(=O)[C@H](CCCNC(=N)N)NC(=O)[C@@H](N)CO)C(C)C)C(=O)N[C@@H](CC(N)=O)C(=O)N[C@@H](C)C(=O)N[C@@H](CO)C(=O)N[C@@H](C(C)C)C(=O)N1)[C@@H](C)O)[C@@H](C)CC)C(=O)N[C@H](C(=O)N[C@@H](CC(=O)O)C(=O)N[C@@H](CC(N)=O)C(=O)N1CCC[C@H]1C(=O)NCC(=O)N[C@@H](CO)C(=O)NCC(=O)N[C@@H](CO)C(N)=O)[C@@H](C)O [TP-2] (H-SRNVNCNASVCTIPDRLITDNPGSGS-NH2; disulfide 6-11)
IC50 (Trx-gp5Δ22 interaction): ~10 µM
Kd (E. coli Trx): 2 µM
reduction of peptide binding in the presence of DTT (E. coli Trx; 10 mM DTT, data not shown): > 50%

H-SSRPLPPLPGS-NH2 [Src SH3 peptide ligand]
Kd (Src SH3): ~5 µM
binding to human Src SH3 domain (human Src SH3 domain): binds to Src SH3 domain
